The results in this text go back to ChEMBL document CHEMBL3779770, “Synthesis, biological evaluation and molecular docking study of some novel indole and pyridine based 1,3,4-oxadiazole derivatives as potential antitubercular agents” (Bioorg Med Chem Lett, 2016).

Series [1] can be described thus: Selectivity index, ratio of GI50 for human PANC1 cells to MIC for active state Mycobacterium bovis BCG ATCC 35734. The format is toxicity, cell-based, PANC-1. The conditions noted are these: read-out: Selectivity Index.
Series [2] is described as follows: Selectivity index, ratio of GI50 for human A549 cells to MIC for dormant state Mycobacterium bovis BCG ATCC 35734. The conditions noted are these: read-out: Selectivity Index. The format is toxicity, cell-based.
Series [3] has as its system Mycobacterium tuberculosis. Kind of series: Antitubercular activity against dormant state Mycobacterium tuberculosis H37Ra assessed as viable cells after 12 days by XTT reduction menadione assay. The format is functional, organism-based. The following applies: 288 h.
The nature of series [4]: Selectivity index, ratio of GI50 for human HeLa cells to MIC for active state Mycobacterium bovis BCG ATCC 35734. The format is toxicity, cell-based. The following applies: read-out: Selectivity Index.
In another series the test system is Bacillus subtilis. Kind of series: Antibacterial activity against Bacillus subtilis NCIM 2079 after 12 hrs. The format is functional, organism-based. The following applies: NCIM 2079, 12 h.
Series [5] in a line: Selectivity index, ratio of GI50 for human A549 cells to MIC for active state Mycobacterium bovis BCG ATCC 35734. The class given is toxicity, cell-based. The following applies: read-out: Selectivity Index.
The nature of series [6]: (§1) Cytotoxicity against human HeLa cells after 72 hrs by MTT assay. The class given is cell-based. The conditions noted are these: HeLa cells. On the technique in general: Formazan colour is commonly taken as a measure of viable cells.
The next series has as its system HeLa. The series is described as §1. The class given is cell-based. The following applies: hela, 72 h.
Another series relates to Staphylococcus aureus. Nature of the series: Antibacterial activity against Staphylococcus aureus NCIM 2010 after 12 hrs. The following applies: NCIM 2010, 12 h. The class given is functional, organism-based.
In series [7] the test system is Mycobacterium tuberculosis. Nature of the series: Antitubercular activity against active state Mycobacterium tuberculosis H37Ra assessed as viable cells after 8 days by XTT reduction menadione assay. The conditions noted are these: 192 h. The class given is functional, organism-based.
A short description of series [8]: Selectivity index, ratio of GI50 for human HeLa cells to MIC for dormant state Mycobacterium bovis BCG ATCC 35734. The conditions noted are these: read-out: Selectivity Index. The class given is toxicity, cell-based.
The test system of another series is A549. Nature of the series: (§2) Cytotoxicity against human A549 cells after 48 hrs by MTT assay. The format is cell-based. The following applies: a549, 48 h.
Series [9] can be described thus: as §2. The class given is cell-based. The following applies: A549 cells.
The next series deals with Escherichia coli. Nature of the series: Antibacterial activity against Escherichia coli NCIM 2688 after 8 hrs. The conditions noted are these: NCIM 2688, 8 h. The format is functional, organism-based.
Series [10] can be described thus: Cytotoxicity against human PANC1 cells after 48 hrs by MTT assay. The format is cell-based, PANC-1.
A short description of series [11]: Selectivity index, ratio of GI50 for human PANC1 cells to MIC for dormant state Mycobacterium bovis BCG ATCC 35734. The class given is toxicity, cell-based, PANC-1. The following applies: read-out: Selectivity Index.
A further series concerns Pseudomonas fluorescens. Kind of series: Antibacterial activity against Pseudomonas fluorescens NCIM 2036 after 8 hrs. The format is functional, organism-based. The following applies: NCIM 2036, 8 h.

In brackets after ≈: the same amount, converted by molar mass. Bounds are passed on as bounds.

By IC50 is commonly meant the point on the concentration scale where inhibition reaches its midpoint. The term MIC denotes the smallest concentration in the dilution series that meets the test's criterion for growth inhibition. By GI50 is commonly meant the concentration giving 50% growth inhibition. For the compound `O=C(/C=C\c1ccc([N+](=O)[O-])cc1)N1N=C(c2ccncc2)OC1c1c[nH]c2ccccc12` (centres undefined), the selectivity ratio in [1] was over 12; in series [2], over 12.7; in series [4], over 12; in series [5] it was over 12; in series [8], over 12.7; in series [11], over 12.7. The IC50 in [3] is over 30 mg/L; in the series on Bacillus subtilis, 13.5 mg/L (≈ 30.6 µM); in the series on Staphylococcus aureus, 12.7 mg/L (≈ 28.8 µM); in series [7], over 30 mg/L; in the series with Escherichia coli, 9.46 mg/L (≈ 21.5 µM); in the series with Pseudomonas fluorescens, 11.9 mg/L (≈ 27 µM). Moreover, the minimal inhibitory concentration (MIC) in [3] was over 30 mg/L; with Bacillus subtilis it was 31.4 mg/L (≈ 71.6 µM); with Staphylococcus aureus, 30.6 mg/L (≈ 69.7 µM); in [7], over 30 mg/L; against Escherichia coli it was 28.2 mg/L (≈ 64.3 µM); in the series on Pseudomonas fluorescens, 29.1 mg/L (≈ 66.1 µM). In [6], this compound gave a concentration for 50% growth inhibition (GI50) at 72 h of over 30 mg/L. The GI90 was over 30 mg/L with HeLa; over 30 mg/L in the series with A549; over 30 mg/L in series [10] (panc-1, 48 h). Besides, the concentration for 50% growth inhibition (GI50) at 48 h in [9] and in series [10] (PANC1 cells) was over 30 mg/L throughout.
